Source: patent US12419891B2, “Compositions for the treatment of pathogenic- and/or chemical-induced lung injury and for the treatment of cancer and methods of using same” (Duke University, priority 2019, dated 2025)

Tests used:
[1] = test system: Basal cells (bronchospheres); experiment: bronchosphere 3D Matrigel culture assay; format: cell-based, human; conditions: for SOX2 (basal cell marker) expression, immunoblot / acetylated α-tubulin (ciliated cell marker) expression, immunoblot: bronchosphere lysates; for bronchosphere growth: basal cell proliferation and differentiation: treated three days starting two days after plating; for Ki67 (proliferation marker) protein expression: vs untreated cells
Protocol: The effect of Abl kinase inhibition on the development of bronchospheres in a 3D Matrigel culture assay was also evaluated. Basal cells were cultured in Matrigel at passage 1 and treated with vehicle control, the Abl kinase inhibitor, GNF5, or the Abl kinase activator, DPH, for three days starting two days after plating the cells.

[2] = test system: mice exposed to S. aureus; experiment: mouse model of pneumonia induced by nasal insufflation of S. aureus; format: in vivo
Protocol: Bacteria. S. aureus (Ssp. aureus, No. 25923; American Type Culture Collection) was grown as previously described (Suliman H B et al. (2017) Mitochondrial quality control in alveolar epithelial cells damaged by S. aureus pneumonia in mice. American journal of physiology. Lung cellular and molecular physiology 313(4):L699-L709). Dilutions of 5×10^8 CFU were used for mouse experiments, and dilutions of 1×10^8 CFU were used for cell culture experiments. S. pneumoniae (serotype 19, No. 49619; American Type Culture Collection) was grown as previously described (Gomez J C, et al. (2016) Journal of immunology 197(7):2864-2879). Dilutions of 6×10^5 CFU were used for mouse experiments.
CC10 (Scgb1a1)-CreERT; Rosa26R-CAG-farnesylated GFP (Rosa26-fGFP) and SPC (Sftpc)-CreERT2; Rosa26-tdTomato mice were kindly provided by Dr. Mark Onaitis and generated by Dr. Brigid Hogan at Duke University and have been previously described (Rawlins E L, et al. (2009) Cell stem cell 4(6):525-534, Xu X, et al. (2012) Proc Natl Acad Sci USA 109(13):4910-4915). These mice were crossed with Abl1^flox/flox mice (Moresco E M, et al. (2005) J Neurosci 25(26):6105-6118) into a C57BL/6 genetic background. Sox2^tmHoch/J mice (referred to as SOX2-eGFP mice in the text) were purchased from the Jackson Laboratory. Gt(Rosa) 26Sor^tm9(EGFP/Rpl10z)Amc/J (referred to as L10-eGFP in the text) mice were purchased from the Jackson Laboratory and were crossed to CC10-CreERT; Abl1^flox/flox mice into a C57BL/6 genetic background for the TRAP experiments. To induce expression of Cre-recombinase for both TRAP experiments and lineage tracing experiments, 8to 20-week-old male and female mice were injected intraperitoneally four times every other day with 0.25 mg/g body weight Tamoxifen (Sigma-T5648) in corn oil (Spectrum-CO136). Exposure to S. aureus was initiated 15 days after the last dose of Tamoxifen. Alternatively, mice were inoculated with purified Adenovirus5-CC10-Cre virus obtained from the University of Iowa Viral Vector Core Facility and generated by Dr. Anton Berns (Netherlands Cancer Institute). 10 μL of stock virus solution was mixed in 30 μL of Minimum Essential Medium and delivered intranasally twice, three days apart, three weeks prior to induction of S. aureus pneumonia. Mice were anesthetized using 0.3 mg xylazine and […] ketamine intraperitoneally prior to intranasal inoculation with a 50 μL dilution of 5×10^8 S. aureus. The mice were monitored daily for weight loss and signs of respiratory distress and euthanized in an isofluorane chamber at days 0, 1, 2, and 3 after inoculation. All experiments were performed under the Duke University IACUC approved protocols: A098-16-04 and A130-16-06. Male and female mice at different ages (8 to 20 weeks old) were evaluated for differential response to drug (Abl kinase inhibitors and tamoxifen) and/or injury, and no significant effects of age and gender were observed.
Inhibitors. GNF5 (N-(2-Hydroxyethyl)-3-(6-(4-(trifluoromethoxy)phenylamino)pyrimidin-4-yl)benzamide) was synthesized at the Duke University's Small Molecule Synthesis Facility, and validated by LC-MS and 1H-NMR/FT-IR spectra and with cell-based assays that confirm potencies and cell signaling inhibitory activities. For in vivo experiments, GNF5 was prepared in a suspension with 0.5% methylcellulose and 0.5% Tween-80 at a concentration of 10 mg/mL, and mice were treated with either 20 mg/kg, 40 mg/kg, or 100 mg/kg b.i.d. via oral gavage.
Bronchoalveolar lavage preparation and assays. Bronchoalveolar lavage (BAL) fluid was collected immediately after euthanasia three days after exposure to S. aureus as previously described (Suliman H B, et al. (2017) Lung cellular and molecular physiology 313(4):L699-L709). Bilateral BAL was performed using two 1 mL aliquots of sterile PBS with approximately 75-80% retrieval per mouse. […]

[3] = test system: primary human bronchial epithelial cells (HBECs); experiment: basal cell differentiation of primary HBECs in air-liquid interface (ALI) cultures; format: cell-based; conditions: vs vehicle
Source text: Cell Culture. Primary human bronchial epithelial cells were isolated as previously described (Fulcher M L & Randell S H (2013) Methods Mol Biol 945:109-121) and passage 1 cells were derived from human lungs unsuitable for transplantation from non-smoker organ donors without pre-existing lung disease under protocol #03-1396 approved by the University of North Carolina at Chapel Hill Biomedical Institutional Review Board. Informed consent was obtained from authorized representatives of all organ donors. 30,000 cells were plated into each well of 6.5 mm polyester inserts containing 0.4 μm pores (Sigma-CLS3470) coated with Type IV human placenta collagen (Sigma-C7521). 100 μl of ALI medium was added to the insert and 600 μl of ALI medium was added to the well at the time of plating. At Day 3, ALI medium from the insert was removed while that in the well was changed daily for 28 days. At Day 28, the inserts containing the cells were removed from their wells, washed with PBS, and incubated at 37° C. for 30 minutes with 1×10^8 CFU S. aureus. Cells were then washed three times with PBS and returned to wells containing 600 μl of ALI medium to regrow. Cells were harvested at multiple time points up to five days after injury for protein or RNA extraction. All cultures were maintained at 37° C. in humidified air containing 5% CO2.
First, the role of Abl kinases in basal cell differentiation in primary human bronchial epithelial cells (HBECs) in air-liquid interface (ALI) cultures was examined. Basal cells were isolated from human donor lungs and plated on polyester transwell inserts at passage 1. Once the cells were 100% confluent (3-4 days after plating), media from the top chamber of the transwell insert was removed to promote differentiation of the basal cells into a pseudostratified ciliated epithelium (FIG. 19A). […] Among these are acetylated α-tubulin and SNTN (ciliated cell marker) and SCGB3A2 (secretory cell marker) (FIG. 19C).
To identify whether Abl kinase inhibition promotes early (Krt5+ cells→Krt8+ cells) or late (Krt8+→acetylated α-tubulin or Scgb1a1+ cells) differentiation, a time course experiment in primary HBEC ALI cultures was conducted. Primary HBECs were plated on polyester transwell inserts and treated with vehicle control or GNF5 24 hours after plating.

[4] = test system: mouse airway epithelium after SO2 injury; experiment: sulfur dioxide (SO2) airway injury mouse model; format: in vivo
Source text: To evaluate whether the Abl kinases promote basal cell differentiation in vivo, the sulfur dioxide (SO2) injury model was employed (FIG. 22). SO2 inhalation elicits cell death and sloughing of luminal (ciliated and secretory) cells, leaving a layer of intact basal cells in the tracheobronchial region (Zuo W. et al. (2015) Nature. 517(7536):616-20). Previous studies have shown that after SO2-induced destruction and sloughing of luminal cells, the surviving basal cells (Krt5+) proliferate to generate progenitor cells (Krt8+) that accumulate and subsequently undergo differentiation into ciliated (acetylated alpha-tubulin+) and secretory (Scgb1a1+) cells (5 days to 2 weeks after injury) (Hogan B L, et al. (2014) Cell stem cell, 15(2):123-38). This well-defined model of airway injury and regeneration has been employed to identify signaling pathways that promote proliferation and differentiation of the lung epithelium after injury (Hogan B L, et al. (2014) Cell stem cell, 15(2):123-38, Tadokoro T, et al., (2014) Proceedings of the National Academy of Sciences of the U.S.A. 111(35):E3641-9).
To distinguish between protective and regenerative effects of Abl kinase inhibition, the expression of various proliferation and differentiation markers in the mouse trachea after injury was evaluated.
Next, whether Abl kinase inhibition promotes basal cell differentiation to Krt8+ cells by affecting Yap1 signaling was investigated. Three days after SO2 injury, mouse tracheas were harvested and evaluated for Yap1 protein expression by immunofluorescence.

[5] = test system: Kras G12D/+; p53 -/- driven lung tumors; format: in vivo, mouse; conditions: GNF5 b.i.d.; docetaxel at sub-therapeutic dose; vehicle four-fold increase
Abl kinases = conditions: Zhang J. et al. (2010) Nature 463:501-506; cited from earlier work
Primary HBECs [6] = experiment: primary HBECs pre-treated with Abl kinase inhibitor before exposure to S. aureus, Western blot; format: cell-based, human; conditions: pre-treated 24 hours prior to exposure to S. aureus
Source text: Cell Culture. Primary human bronchial epithelial cells were isolated as previously described (Fulcher M L & Randell S H (2013) Methods Mol Biol 945:109-121) and passage 1 cells were derived from human lungs unsuitable for transplantation from non-smoker organ donors without pre-existing lung disease under protocol #03-1396 approved by the University of North Carolina at Chapel Hill Biomedical Institutional Review Board. Informed consent was obtained from authorized representatives of all organ donors. 30,000 cells were plated into each well of 6.5 mm polyester inserts containing 0.4 μm pores (Sigma-CLS3470) coated with Type IV human placenta collagen (Sigma-C7521). 100 μl of ALI medium was added to the insert and 600 μl of ALI medium was added to the well at the time of plating. At Day 3, ALI medium from the insert was removed while that in the well was changed daily for 28 days. At Day 28, the inserts containing the cells were removed from their wells, washed with PBS, and incubated at 37° C. for 30 minutes with 1×10^8 CFU S. aureus. Cells were then washed three times with PBS and returned to wells containing 600 μl of ALI medium to regrow. […]
Immunoblotting. […] Protein was quantified, and equal amounts of protein was separated by SDS-polyacrylamide gel electrophoresis (BioRad-1610183) and transferred onto 0.2 μm pore nitrocellulose membranes. […]

Primary HBECs [7] = experiment: transepithelial electrical resistance assay in ALI cultures of primary HBECs; format: cell-based, human; conditions: vs vehicle control-treated cells
Source text: Thus, inhibition of the Abl kinases in 3D ALI cultures of primary HBECs promotes basal cell differentiation and enhances barrier function.

[8] = day 3 post-infection, treatment started 24 hours after injury (Post)

## O=C1NC(=O)C(c2cn(-c3ccccc3)nc2-c2ccc(F)cc2)N1 (stereo not drawn) [DPH]
[1]
  SOX2 (basal cell marker) expression, immunoblot: increased expression of the basal cell marker, SOX2
  acetylated α-tubulin (ciliated cell marker) expression, immunoblot: decreased expression of acetylated α-tubulin
  bronchosphere growth: basal cell proliferation and differentiation: reduced bronchosphere growth and differentiation

## O=C(NCCO)c1cccc(-c2cc(Nc3ccc(OC(F)(F)F)cc3)ncn2)c1 [GNF5, N-(2-Hydroxyethyl)-3-(6-(4-(trifluoromethoxy)phenylamino)pyrimidin-4-yl)benzamide]
[2]; 24 h after injury, vs vehicle control-treated mice
  activity and appearance of mice: active and exhibited a healthy appearance
[2]; 72 hours post-infection, treatment started 1 h after insufflation
  lung injury in lung tissue sections (H&E): significant decrease in lung injury
[2]; CC10-CreER, Rosa26-fGFP mice, three days after injury, vs vehicle
  proportion of GFP+ (Scgb1a1 driver) SPC+ cells: significant increase
[2]; SOX2-eGFP mice, 100 mg/kg b.i.d. oral gavage from 24 h before insufflation, three days after injury, vs vehicle
  proportion of SOX2+ SPC+ cells expanding from bronchioles into lung parenchyma: dramatic increase
[2]; SPC-CreERT2, Rosa26-tdTomato mice, 3 days after injury, vs Abl1 wt or fl/fl mice
  alveolar damage (loss of alveolar area/volume compared to uninfected mice): reduced damage
[2]; SPC-CreERT2, Rosa26-tdTomato mice, three days after injury
  tdTomato+, RAGE+ (Type I) cells derived from tdTomato+, SPC+, RAGE- (Type II) cells: detected at sites of damage only in mice treated with GNF5
[2]; SPC-CreERT2, Rosa26-tdTomato mice, vs untreated wild-type and Abl1 knockout
  proportion of tdTomato+ (Sftpc driver) RAGE+ Type I AECs: increase in the proportion
[2]; after injury
  SPC expression in SCGB1A1+ cells within the bronchioles: enhanced SPC expression
[2]; [8]
  BAL protein concentration: significant reduction in protein concentration
[2]; day 3 post-infection, treatment started 24 hours prior to injury (Pre)
  BAL protein concentration: significant reduction in protein concentration
[2]; day 3 post-infection, vs control mice
  recovery of alveolar epithelium (RAGE staining): recovered more rapidly
[2]; two doses, 1 hour and 16 hours after injury, evaluated after 24 hours, vs vehicle
  recovery of mice after injury: sufficient to promote recovery after 24 hours
[3]; 7 days after plating
  SNTN expression (RT-PCR): increase in expression of SNTN
[3]; treated 24 hours after plating
  Krt8 expression (immunofluorescence and Western blot): significant increase in expression of Krt8
[1]
  SOX2 (basal cell marker) expression, immunoblot: decrease in the basal cell marker, SOX2
  acetylated α-tubulin (ciliated cell marker) expression, immunoblot: increase in the ciliated cell marker, acetylated α-tubulin
  bronchosphere growth: basal cell proliferation and differentiation: promoted basal cell proliferation and differentiation
  Ki67 (proliferation marker) protein expression: increase in protein expression of the proliferation marker, Ki67
[4]; 24 h following SO2 induced injury, vs untreated
  Ki67 expression in tracheal basal cells: significant increase in the expression of Ki67
[4]; 24 hours after SO2 exposure
  Scgb1a1+ Club cells and acetylated α-tubulin+ ciliated cells (staining): mostly intact layer of secretory cells and some ciliated cells
[4]; 24 hours after sulfur dioxide, pre-treatment 24 hours before
  quantification of acetylated α-tubulin+ ciliated cells in whole tracheas: protection of ciliated cells
[4]; after SO2 injury, vs untreated mice
  pseudostratified epithelium in whole trachea sections (immunofluorescence): preservation of the pseudostratified epithelium
[4]; three days after SO2 injury
  Yap1 localization in basal cells: predominantly cytoplasmic localization of Yap1
  tracheal epithelium morphology (H&E): stratified, columnar, ciliated epithelium that had almost completely recovered from injury
[4]; within 24 hours after SO2 injury, pre-treated mice
  state of airway epithelium: mostly intact mouse airway epithelium
[5]
  change in tumor size over a two-week period (μCT): two-fold increase in tumor size
Abl kinases
  selectivity versus other protein kinases: does not inhibit other protein kinases

## Cc1cn(-c2cc(NC(=O)c3ccc(C)c(Nc4nccc(-c5cccnc5)n4)c3)cc(C(F)(F)F)c2)cn1 [nilotinib]
[2]; FIG. 9F, treatment 24 h after injury
  lung injury: significant reduction in lung injury
[2]; [8]
  BAL protein concentration: reduction in protein in the airspace
Primary HBECs [6]
  expression of downstream transcriptional targets of YAP (Birc5, c-Myc, Cyclin D3): decreased transcript and protein expression
[3]; 7 days after plating
  acetylated α-tubulin expression (3D reconstruction): increase in expression of acetylated α-tubulin
  acetylated α-tubulin protein expression (Western blot): increase in protein expression of acetylated α-tubulin
Primary HBECs [7]
  transepithelial electrical resistance across monolayer: increased resistance
[1]
  SOX2 (basal cell marker) expression, immunoblot: decrease in the basal cell marker, SOX2
  acetylated α-tubulin (ciliated cell marker) expression, immunoblot: increase in the ciliated cell marker, acetylated α-tubulin
  Ki67 (proliferation marker) protein expression: increase in protein expression of the proliferation marker, Ki67
